pIC50, pKi: −log10 of the molar value. Where a name gives a salt, the structure may show the parent alone.
Columns and labels:
P2X7 [1] = biological target: T1, P2X7 (Homo sapiens (Human), UniProt Q99572); assay: Ca2+ flux (FLIPR) in 1321N1 cells expressing recombinant human P2X7 channel; type: cell-based; details: 250 μM BzATP;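 also: Calcium-4 dye-loaded cells exposed to compound for 30 min before agonist addition, fluorescence change read 180 s after agonist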
Description: Cells were seeded at a density of 25000 cells/well (96-well clear bottom black walled plates) in 100 μl volume/well. On the day of the experiment, cell plates were washed with assay buffer, containing (in mM): 130 NaCl, 2 KCl, 1 CaCl2, 1 MgCl2, 10 HEPES, 5 glucose; pH 7.40 and 300 mOs. After the wash, cells were loaded with the Calcium-4 dye (Molecular Device) and incubated in the dark for 60 minutes. Test compounds were prepared at 250× the test concentration in neat DMSO. Intermediate 96-well compound plates were prepared by transferring 1.2 μL of the compound into 300 μL of assay buffer. A further 3× dilution occurred when transferring 50 μL/well of the compound plate to 100 μL/well in the cell plate. Cells were incubated with test compounds and dye for 30 minutes. […] The fluorescence change was measured 180 seconds after adding the agonist.

rat P2X7 = rat P2X7 (Rattus norvegicus (Rat), UniProt Q64663); assay: Ca2+ flux (FLIPR) in 1321N1 cells expressing recombinant rat P2X7 channel; type: cell-based; details: 250 μM BzATP;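 also: Calcium-4 dye fluorescence change read 180 s after agonist addition, following 30 min cell preincubation with test compound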
P2X7 [2] = biological target: T1, P2X7; assay: Radioligand binding, tritiated A-804598, human P2X7-1321N1 cell membranes; details: 1 hour at 4° C.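 Also: ki obtained from the binding IC50 after correction for tracer concentration and tracer affinity.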
Description: On the day of the experiment, cell membrane preparations were made according to standard published methods. […] The assay was terminated by filtration (GF/B filters pre-soaked with 0.3% PEI) and washed with washing buffer (Tris-HCl 50 mM). The IC50 generated in the binding assay was corrected for tracer concentration and affinity of the tracer to derive at the affinity (Ki) of the test compounds.

P2X7 [3] = biological target: T1, P2X7; assay: P2X7 antagonism in human PBMCs (LPS + Bz-ATP induced IL-1β release, ELISA); type: cell-based; details: LPS 30 ng/ml, Bz-ATP 0.5 mM; for PBMC 1 μM (% control): compound 1 μM; for PBMC 10 μM (% control): compound 10 μM;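 as to all read-outs here: PBMCs from donor human blood, with a further 1.5 h incubation of the cells in the assay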

T1 sequence (Q99572 whole entry): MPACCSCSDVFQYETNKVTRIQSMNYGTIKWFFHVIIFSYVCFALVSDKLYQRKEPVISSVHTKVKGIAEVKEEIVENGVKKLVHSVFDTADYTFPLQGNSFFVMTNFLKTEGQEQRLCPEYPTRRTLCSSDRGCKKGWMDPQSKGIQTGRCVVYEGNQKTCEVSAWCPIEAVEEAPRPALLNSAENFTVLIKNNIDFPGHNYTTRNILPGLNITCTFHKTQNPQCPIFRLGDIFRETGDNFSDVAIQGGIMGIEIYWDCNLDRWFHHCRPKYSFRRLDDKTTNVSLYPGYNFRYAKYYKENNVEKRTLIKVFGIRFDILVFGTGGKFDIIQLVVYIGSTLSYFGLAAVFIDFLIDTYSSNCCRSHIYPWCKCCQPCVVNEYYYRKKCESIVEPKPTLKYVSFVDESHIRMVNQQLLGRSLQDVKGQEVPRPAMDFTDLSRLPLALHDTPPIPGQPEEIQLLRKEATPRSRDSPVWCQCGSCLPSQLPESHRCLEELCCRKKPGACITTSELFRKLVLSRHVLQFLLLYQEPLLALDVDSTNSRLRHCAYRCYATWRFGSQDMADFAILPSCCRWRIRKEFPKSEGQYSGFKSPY
Chain of rat P2X7 (Q64663 whole entry): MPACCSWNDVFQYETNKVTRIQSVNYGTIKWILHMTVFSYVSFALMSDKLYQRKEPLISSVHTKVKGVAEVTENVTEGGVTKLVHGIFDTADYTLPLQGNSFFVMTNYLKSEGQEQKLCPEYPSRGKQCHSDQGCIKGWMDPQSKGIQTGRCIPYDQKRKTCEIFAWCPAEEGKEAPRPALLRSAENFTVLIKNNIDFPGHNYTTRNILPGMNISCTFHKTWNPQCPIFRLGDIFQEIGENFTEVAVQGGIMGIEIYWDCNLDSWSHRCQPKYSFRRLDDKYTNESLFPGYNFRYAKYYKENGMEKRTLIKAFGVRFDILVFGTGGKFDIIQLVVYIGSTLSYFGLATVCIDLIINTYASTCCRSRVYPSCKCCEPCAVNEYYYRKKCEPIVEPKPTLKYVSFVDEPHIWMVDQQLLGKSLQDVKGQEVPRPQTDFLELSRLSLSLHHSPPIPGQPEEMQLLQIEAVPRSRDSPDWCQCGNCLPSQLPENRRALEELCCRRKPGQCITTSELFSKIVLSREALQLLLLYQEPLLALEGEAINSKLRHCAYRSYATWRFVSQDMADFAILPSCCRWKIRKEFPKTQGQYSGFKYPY

Row | pIC50 (P2X7 [1]) | pIC50 (rat P2X7) | pKi (P2X7 [2]) | PBMC 1 μM (% control) (P2X7 [3]) | PBMC 10 μM (% control) (P2X7 [3]) | SMILES
1 | 8.18 | 6.26 | 7.85 |  | 32.5 % control | O=C(c1cccc(C(F)(F)F)c1Cl)N1CCc2c(-c3ncccn3)n[nH]c2C1 [Example 98, 6-{[2-Chloro-3-(trifluoromethyl)phenyl]carbonyl}-3-pyrimidin-2-yl-4,5,6,7-tetrahydro-2H-pyrazolo[3,4-c]pyridine]
2 | 6.69 | 5.79 | 7.30 | 8.9 % control |  | O=C(c1ccnc(Cl)c1Cl)N1CCc2c(-c3ccccc3)n[nH]c2C1 [Example 104, 6-[(2,3-Dichloropyridin-4-yl)carbonyl]-3-phenyl-4,5,6,7-tetrahydro-1H-pyrazolo[3,4-c]pyridine]
3 | 6.07 | < 5.00 | 6.40 |  | 42.6 % control | Cn1nc2c(c1-c1cncnc1)CCN(C(=O)c1cccc(C(F)(F)F)c1Cl)C2 [Example 113, 6-{[2-Chloro-3-(trifluoromethyl)phenyl]carbonyl}-2-methyl-3-pyrimidin-5-yl-4,5,6,7-tetrahydro-2H-pyrazolo[3,4-c]pyridine]
4 | 8.49 | 8.19 | 7.95 |  | −0.2 % control | CC1Cc2c(nnn2-c2ccccn2)CN1C(=O)c1ccc(F)c(Cl)c1Cl (stereo not shown) [Example 121, 5-[(2,3-Dichloro-4-fluorophenyl)carbonyl]-6-methyl-1-pyridin-2-yl-4,5,6,7-tetrahydro-1H-[1,2,3]triazolo[4,5-c]pyridine]

Second part, the compound before the results:

Row | SMILES | pIC50 (P2X7 [1]) | pIC50 (rat P2X7) | pKi (P2X7 [2]) | PBMC 1 μM (% control) (P2X7 [3]) | PBMC 10 μM (% control) (P2X7 [3])
5 | Cn1nc2c(c1-c1ccccn1)CCN(C(=O)c1cccc(C(F)(F)F)c1Cl)C2 [Example 92, 6-{[2-Chloro-3-(trifluoromethyl)phenyl]carbonyl}-2-methyl-3-pyridin-2-yl-4,5,6,7-tetrahydro-2H-pyrazolo[3,4-c]pyridine] | 8.27 | 6.36 | 7.58 | 2.8 % control | 
6 | O=C(c1cccc(C(F)(F)F)c1Cl)N1CCc2c(-c3ccccn3)n[nH]c2C1 [Example 93, 6-{[2-Chloro-3-(trifluoromethyl)phenyl]carbonyl}-3-pyridin-2-yl-4,5,6,7-tetrahydro-2H-pyrazolo[3,4-c]pyridine. TFA salt] | 8.10 | 6.60 | 7.40 | 9.0 % control | 
7 | O=C(c1cccc(C(F)(F)F)c1Cl)N1CCc2c(-c3ccc(F)cn3)n[nH]c2C1 [Example 94, 6-{[2-Chloro-3-(trifluoromethyl)phenyl]carbonyl}-3-(5-fluoropyridin-2-yl)-4,5,6,7-tetrahydro-2H-pyrazolo[3,4-c]pyridine] | 7.91 | 6.91 | 7.50 |  | 10.8 % control
8 | O=C(c1cccc(C(F)(F)F)c1Cl)N1CCc2c(-c3cncc(F)c3)n[nH]c2C1 [Example 95, 6-{[2-Chloro-3-(trifluoromethyl)phenyl]carbonyl}-3-(5-fluoropyridin-3-yl)-4,5,6,7-tetrahydro-2H-pyrazolo[3,4-c]pyridine] | 6.69 | < 5.00 | 6.50 |  | 14.4 % control
9 | O=C(c1cccc(C(F)(F)F)c1Cl)N1CCc2c(-c3cccnc3)n[nH]c2C1 [Example 96, 6-{[2-Chloro-3-(trifluoromethyl)phenyl]carbonyl}-3-pyridin-3-yl-4,5,6,7-tetrahydro-2H-pyrazolo[3,4-c]pyridine] | 8.60 | 6.75 | 7.83 |  | 3.6 % control
10 | O=C(c1cccc(C(F)(F)F)c1Cl)N1CCc2c(-c3cnccn3)n[nH]c2C1 [Example 97, 6-{[2-Chloro-3-(trifluoromethyl)phenyl]carbonyl}-3-pyrazin-2-yl-4,5,6,7-tetrahydro-2H-pyrazolo[3,4-c]pyridine] | 8.35 | 5.64 | 7.70 |  | 12.7 % control
